From article PMC10796436, “Peptidyl nitroalkene inhibitors of main protease rationalized by computational and crystallographic investigations as antivirals against SARS-CoV-2” (Communications Chemistry, 2024)
Several values for one entry are separate records, joined by “and”; a condition that tells them apart may be missing. Equal entries are not always repeated. Where two headings read alike, the source gives them in different places.

Key:
[1] = calibration compound; cited from earlier work
SARS-CoV-2 M^pro [2] = target: T1, SARS-CoV-2 M^pro (Severe acute respiratory syndrome coronavirus 2, UniProt P0DTD1); test: Mpro FRET inhibition, continuous fluorometric assay (Fluorolog-3), enzyme from pET21-M^pro vector; assay type: biochemical; conditions: read-out: Ki (μM)^b
SARS-CoV-2 M^pro [3] = target: T1, SARS-CoV-2 M^pro; test: biochemical; conditions: M^pro from pMal-M^pro vector
M^pro [4] = target: T2, M^pro (Severe acute respiratory syndrome coronavirus 2, UniProt P0DTD1); test: biochemical; assay type: binding
[5] = target: human matriptase (MT-SP1) (Homo sapiens, UniProt Q9Y5Y6); test: Matriptase inhibition, fluorometric assay; assay type: biochemical; conditions: 20 μM
rhodesain (RhD) = target: T3, rhodesain (RhD) (Trypanosoma brucei rhodesiense, UniProt Q95PM0); test: Rhodesain inhibition, fluorometric assay; assay type: biochemical; conditions: read-out: Ki RhD
T3 construct: made in house

M^pro [6] = target: T2, M^pro; test: Binding to M^pro by ultracentrifugation (sedimentation method)
in vitro = conditions: human
cruzain (CRZ) = cruzain (CRZ) (Trypanosoma cruzi, UniProt P25779); test: Cruzain inhibition, fluorometric assay; assay type: biochemical; conditions: read-out: Ki CRZ
[7] = target: Zika Virus NS2B/NS3 (bZiPro) (Zika virus, UniProt A0A024B7W1); test: Zika virus protease inhibition, fluorometric assay; assay type: biochemical; conditions: 20 μM
cathepsin B (CatB) = target: T4, cathepsin B (CatB) (Homo sapiens, UniProt P07858); test: Cathepsin B inhibition, fluorometric assay; assay type: biochemical; conditions: read-out: Ki CatB
T4 construct: purchased Calbiochem (Merck Millipore)

cathepsin L (CatL) = target: T5, cathepsin L (CatL) (Homo sapiens, UniProt P07711); test: Cathepsin L inhibition, fluorometric assay; assay type: biochemical; conditions: read-out: Ki CatL
T5 construct: purchased Calbiochem (Merck Millipore)

SARS-CoV-2 = test: microbe, parasite or virus in culture; assay type: cell-based; conditions: for EC50: Huh-7-ACE2, 24h p.t., MOI=0.1; for virus titer Mean (%): mean of Exp.1-3; for virus titer (pfu/ml) / virus titer (%) of conc 0: single experiments
M^pro [8] = target: T2, M^pro; assay type: biochemical; conditions: for Fluorescence reading (progress curve): triplicate wells
Protocol: Buffer: 20 mM Tris, 0.1 mM EDTA, 1 mM DTT, 200 mM NaCl pH = 7.5. For the dilution assay Nirmatrelvir[21] was used as a reversible control and LM188[54] as an irreversible control (Fig. 10).
The incubation was done at RT for 30 min in assay buffer. DMSO was used as a control. After incubation the Enzyme/Inhibitor (or DMSO) mixtures were diluted 100-fold in assay buffer.
The preincubation was done in assay buffer (20 mM Tris, 0.1 mM EDTA, 1 mM DTT, 200 mM NaCl, pH = 7.5), at RT for 30 min. After incubation the mixtures were diluted […]
proteolytic activity of the enzyme was measured as described for the enzymatic assays using the […]
activity was measured over 1 h.
Inhibition assay58. Trypsin: Enzyme: bovine trypsin purchased from Sigma-Aldrich (St. Louis, […]
Substrate: Cbz-FR-AMC purchased from Bachem (Bubendorf, Switzerland), [Substrate]: 40 µM […]
The activity against bovine trypsin was tested at 20 µM inhibitor concentration. […]

Sequence of cruzain (CRZ) (P25779 123-467): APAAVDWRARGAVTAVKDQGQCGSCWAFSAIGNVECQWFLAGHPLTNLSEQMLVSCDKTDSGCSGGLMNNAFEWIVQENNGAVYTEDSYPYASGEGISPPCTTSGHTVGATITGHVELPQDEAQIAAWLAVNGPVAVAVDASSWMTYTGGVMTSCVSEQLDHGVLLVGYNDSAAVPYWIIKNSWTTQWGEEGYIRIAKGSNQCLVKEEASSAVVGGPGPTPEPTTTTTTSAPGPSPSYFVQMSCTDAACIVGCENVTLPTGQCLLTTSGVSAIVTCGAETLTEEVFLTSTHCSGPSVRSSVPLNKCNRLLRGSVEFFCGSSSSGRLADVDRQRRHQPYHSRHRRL
Sequence of Zika Virus NS2B/NS3 (bZiPro) (A0A024B7W1 1425-1464): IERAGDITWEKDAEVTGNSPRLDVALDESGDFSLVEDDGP
Sequence of Zika Virus NS2B/NS3 (bZiPro) (A0A024B7W1 1503-1680): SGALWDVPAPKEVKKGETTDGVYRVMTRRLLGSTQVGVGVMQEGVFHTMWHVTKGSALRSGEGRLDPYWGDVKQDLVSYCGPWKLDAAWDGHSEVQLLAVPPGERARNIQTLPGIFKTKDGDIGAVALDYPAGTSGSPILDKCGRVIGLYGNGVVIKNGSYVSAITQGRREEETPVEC
Sequence of human matriptase (MT-SP1) (Q9Y5Y6 615-855 limits assumed, other chains not shown): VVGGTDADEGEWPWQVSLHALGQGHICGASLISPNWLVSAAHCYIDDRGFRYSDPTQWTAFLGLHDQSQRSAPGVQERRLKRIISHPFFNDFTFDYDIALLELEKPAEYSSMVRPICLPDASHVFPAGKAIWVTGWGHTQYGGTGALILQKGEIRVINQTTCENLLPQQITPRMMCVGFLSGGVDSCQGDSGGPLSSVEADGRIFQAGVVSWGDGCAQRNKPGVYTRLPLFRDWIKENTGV
T5 sequence (P07711 114-288 limits assumed): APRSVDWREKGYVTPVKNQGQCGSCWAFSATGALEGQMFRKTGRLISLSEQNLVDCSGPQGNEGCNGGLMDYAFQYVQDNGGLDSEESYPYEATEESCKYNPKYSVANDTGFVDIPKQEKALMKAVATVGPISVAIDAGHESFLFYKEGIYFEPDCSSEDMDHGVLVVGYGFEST
T5 sequence (P07711 292-333 limits assumed): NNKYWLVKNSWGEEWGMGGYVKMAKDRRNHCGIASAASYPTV
T3 sequence (Q95PM0 entry or part of it): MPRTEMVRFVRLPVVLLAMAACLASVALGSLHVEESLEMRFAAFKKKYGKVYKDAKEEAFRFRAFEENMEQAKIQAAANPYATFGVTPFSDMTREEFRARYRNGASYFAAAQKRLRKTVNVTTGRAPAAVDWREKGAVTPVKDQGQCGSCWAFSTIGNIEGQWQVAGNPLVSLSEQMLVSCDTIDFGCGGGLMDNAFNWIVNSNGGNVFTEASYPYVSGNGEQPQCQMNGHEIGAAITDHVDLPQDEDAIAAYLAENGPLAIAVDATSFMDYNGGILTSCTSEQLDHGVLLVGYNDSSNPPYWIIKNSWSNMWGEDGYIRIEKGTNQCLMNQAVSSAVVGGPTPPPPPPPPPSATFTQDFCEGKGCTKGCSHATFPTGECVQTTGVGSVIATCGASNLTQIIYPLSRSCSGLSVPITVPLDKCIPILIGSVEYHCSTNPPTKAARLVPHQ

CC(=O)c1ccccc1 [Acetophenone]
Chromatographic Hydrophobicity Index (publication) [1]: 64.90

c1ccc2[nH]cnc2c1 [Benzimidazole]
Chromatographic Hydrophobicity Index (publication) [1]: 30.71

CCCC(=O)c1ccccc1 [Butyrophenone]
Chromatographic Hydrophobicity Index (publication) [1]: 88.49

O=C(N[C@@H](Cc1ccccc1)C(=O)N[C@H](/C=C/[N+](=O)[O-])CCc1ccccc1)OCc1ccccc1 [FGA86]
Ki (SARS-CoV-2 M^pro [2]): 2.67 ± 0.29 µM | inhibition at 20 µM (SARS-CoV-2 M^pro [3]): 17% | change of Tm of M^pro (M^pro [4]; 25 µM): 0.9 ± 0.4 °C | ΔTm at 25 µM (M^pro [4]; 25 µM, read-out: DTm (°C)): 0.9 °C | change of Tm of M^pro (M^pro [4]; 100 μM): −1.7 ± 0.4 °C

CC(C)CC(NC(=O)C=Cc1ccccc1)C(=O)NC(C=C[N+](=O)[O-])CC1CCNC1=O (centres unmarked) [FGA145]
Ki (SARS-CoV-2 M^pro [2]): 9.82 ± 1.5 µM | MT-SP1 [5]: n.i. (no inhibition (<10%) was observed at a concentration of 20 μM) | Ki (SARS-CoV-2 M^pro [3]): 3.71 ± 0.38 µM | Ki (rhodesain (RhD)): 0.00163 ± 0.00022 µM | Fraction bound, Absorption (M^pro [6]; ligand concentration 0.5): 0.01689 | Fraction bound, Absorption (M^pro [6]; ligand concentration 1): 0.05068 | Fraction bound, Absorption (M^pro [6]; ligand concentration 5): 0.2419 | Fraction bound, Absorption (M^pro [6]; ligand concentration 10): 0.373 | Fraction bound, Absorption (M^pro [6]; ligand concentration 25): 0.7297 | Fraction bound, Absorption (M^pro [6]; ligand concentration 50): 0.9595 | Fraction bound, Absorption (M^pro [6]; ligand concentration 100): 1.009 | Kd (M^pro [6]; ultracentrifugation, 25 °C): 11.8 ± 1.05 µM | CC50 (in vitro): > 100 µM | Ki (cruzain (CRZ)): 0.0126 ± 0.0015 µM | bZiPro [7]: n.i. (no inhibition (<10%) was observed at a concentration of 20 μM) | Ki (cathepsin B (CatB)): 0.206 ± 0.041 µM | Ki (cathepsin L (CatL)): 0.053 ± 0.0041 µM | EC50 (SARS-CoV-2): 11.7 µM | EC50 (SARS-CoV-2; Severe acute respiratory syndrome coronavirus 2, 24 h): 11.7 µM | virus titer Mean (%) (SARS-CoV-2; conc 0.1): 99% | virus titer (pfu/ml) (SARS-CoV-2; conc 0.1): 1400000 pfu/ml and 1000000 pfu/ml and 1070000 pfu/ml | virus titer Mean (%) (SARS-CoV-2; conc 0.5): 119% | virus titer (%) of conc 0 (SARS-CoV-2; conc 0.5): 160% and 90% and 107% | virus titer (pfu/ml) (SARS-CoV-2; conc 0.5): 1600000 pfu/ml and 1800000 pfu/ml and 1070000 pfu/ml | virus titer Mean (%) (SARS-CoV-2; conc 1): 120% | virus titer (pfu/ml) (SARS-CoV-2; conc 1): 1400000 pfu/ml and 1500000 pfu/ml | virus titer Mean (%) (SARS-CoV-2; conc 5): 108.333% | virus titer (%) of conc 0 (SARS-CoV-2; conc 5): 120% and 75% and 130% | virus titer (pfu/ml) (SARS-CoV-2; conc 5): 1200000 pfu/ml and 1500000 pfu/ml and 1300000 pfu/ml | virus titer Mean (%) (SARS-CoV-2; conc 10): 25.6667% | virus titer (pfu/ml) (SARS-CoV-2; conc 10): 400000 pfu/ml and 200000 pfu/ml and 270000 pfu/ml | virus titer Mean (%) (SARS-CoV-2; conc 50): 0.07467% | virus titer (%) of conc 0 (SARS-CoV-2; conc 50): 0.2% and 0.01% and 0.014% | virus titer Mean (%) (SARS-CoV-2; conc 100): 0.017% | virus titer (%) of conc 0 (SARS-CoV-2; conc 100): 0.006% and 0.02% and 0.025% | change of Tm of M^pro (M^pro [4]; 25 µM): −1.1 ± 0.2 °C | ΔTm at 25 µM (M^pro [4]; 25 µM, read-out: DTm (°C)): -1.1 °C | change of Tm of M^pro (M^pro [4]; 100 μM): −3.7 ± 0.1 °C

CC(C)C[C@H](NC(=O)[C@@H](NC(=O)[C@H](C)NC(=O)OC(C)(C)C)C(C)C)C(=O)N[C@H](/C=C/[N+](=O)[O-])CCc1ccccc1 [FGA159]
Ki (SARS-CoV-2 M^pro [2]): 1.19 ± 0.18 µM | Ki (SARS-CoV-2 M^pro [3]): 21.8 ± 1.5 µM | ΔTm at 5 µM (M^pro [4]; 5 µM, read-out: DTm (°C)): 2.6 °C | ΔTm at 25 µM (M^pro [4]; 25 µM, read-out: DTm (°C)): 2.5 °C | change of Tm of M^pro (M^pro [4]; concentration range between 5 and 100 μM): 2.5 ± 0.2 °C

CC(C)CC(NC(=O)C=Cc1ccccc1)C(=O)NC(C=C[N+](=O)[O-])CCc1ccccc1 (centres unmarked) [FGA177]
Ki (SARS-CoV-2 M^pro [2]): 8.59 ± 1.6 µM | inhibition at 20 µM (SARS-CoV-2 M^pro [3]): 25% | ΔTm at 25 µM (M^pro [4]; 25 µM, read-out: DTm (°C)): 0.1 °C | change of Tm of M^pro (M^pro [4]; range of 25 to 100 μM): 0.1 ± 0.2 °C

COc1cccc2[nH]c(C(=O)N[C@@H](CC(C)C)C(=O)N[C@H](/C=C/S(=O)(=O)c3ccccc3)C[C@@H]3CCNC3=O)cc12 [LM188, reference compound]
Fluorescence reading (progress curve) (M^pro [8]; Time 180.071 s): 253 and 247 | Fluorescence reading (progress curve) (M^pro [8]; Time 210.081 s): 256 and 250 | Fluorescence reading (progress curve) (M^pro [8]; Time 240.095 s): 254 and 247 | Fluorescence reading (progress curve) (M^pro [8]; Time 270.113 s): 256 and 248 | Fluorescence reading (progress curve) (M^pro [8]; Time 300.118 s): 253 and 248 and 250 | Fluorescence reading (progress curve) (M^pro [8]; Time 330.126 s): 256 and 248 and 247 | Fluorescence reading (progress curve) (M^pro [8]; Time 360.134 s): 249 and 246 and 248 | Fluorescence reading (progress curve) (M^pro [8]; Time 390.141 s): 253 and 250 and 249 | Fluorescence reading (progress curve) (M^pro [8]; Time 420.149 s): 251 and 247 and 248 | Fluorescence reading (progress curve) (M^pro [8]; Time 450.157 s): 255 and 249 and 250 | Fluorescence reading (progress curve) (M^pro [8]; Time 480.18 s): 255 and 244 | Fluorescence reading (progress curve) (M^pro [8]; Time 2881.2 s): 249 and 222 and 233 | Fluorescence reading (progress curve) (M^pro [8]; Time 2911.21 s): 247 and 222 and 232 | Fluorescence reading (progress curve) (M^pro [8]; Time 2941.22 s): 252 and 222 and 230 | Fluorescence reading (progress curve) (M^pro [8]; Time 2971.24 s): 250 and 221 and 231 | Fluorescence reading (progress curve) (M^pro [8]; Time 3001.25 s): 248 and 221 and 233 | Fluorescence reading (progress curve) (M^pro [8]; Time 3031.26 s): 247 and 219 and 231 | Fluorescence reading (progress curve) (M^pro [8]; Time 3061.27 s): 249 and 220 and 232 | Fluorescence reading (progress curve) (M^pro [8]; Time 3091.28 s): 249 and 219 and 230 | Fluorescence reading (progress curve) (M^pro [8]; Time 3121.29 s): 250 and 222 and 232 | Fluorescence reading (progress curve) (M^pro [8]; Time 3151.3 s): 246 and 219 and 232 | Fluorescence reading (progress curve) (M^pro [8]; Time 3181.31 s): 246 and 220 and 232 | Fluorescence reading (progress curve) (M^pro [8]; Time 3211.32 s): 246 and 221 and 231 | Fluorescence reading (progress curve) (M^pro [8]; Time 3241.33 s): 243 and 219 and 230 | Fluorescence reading (progress curve) (M^pro [8]; Time 3271.34 s): 248 and 221 and 229 | Fluorescence reading (progress curve) (M^pro [8]; Time 3301.35 s): 245 and 216 and 230 | Fluorescence reading (progress curve) (M^pro [8]; Time 3331.36 s): 246 and 218 and 230 | Fluorescence reading (progress curve) (M^pro [8]; Time 3361.37 s): 243 and 219 and 232 | Fluorescence reading (progress curve) (M^pro [8]; Time 3391.39 s): 244 and 216 and 230 | Fluorescence reading (progress curve) (M^pro [8]; Time 3421.39 s): 241 and 217 and 230 | Fluorescence reading (progress curve) (M^pro [8]; Time 3451.41 s): 245 and 215 and 227 | Fluorescence reading (progress curve) (M^pro [8]; Time 3481.42 s): 249 and 217 and 230 | Fluorescence reading (progress curve) (M^pro [8]; Time 3511.43 s): 242 and 218 and 229 | Fluorescence reading (progress curve) (M^pro [8]; Time 3541.44 s): 244 and 216 and 229 | Fluorescence reading (progress curve) (M^pro [8]; Time 3571.45 s): 243 and 214 and 228 | recovery of M^pro activity after 100-fold dilution (M^pro [8]; preincubation 30 min): no visible recovery of activity

c1ccc(-c2nnn[nH]2)cc1 [Phenyltetrazole]
Chromatographic Hydrophobicity Index (publication) [1]: 20.18

CCC(=O)c1ccccc1 [Propiophenone]
Chromatographic Hydrophobicity Index (publication) [1]: 78.41

Cn1c(=O)c2[nH]cnc2n(C)c1=O [Theophylline]
Chromatographic Hydrophobicity Index (publication) [1]: 15.76

CCCCC(=O)c1ccccc1 [Valerophenone]
Chromatographic Hydrophobicity Index (publication) [1]: 97.67
